Read-outs that look alike come from different tables or passages of the source.
Experiments:
[1] = test system: parental HEK cells; assay: HEK parental Agonist Counterscreen Assay (non-transfected cells); type: cell-based; conditions: for Averaged Max % Response (±St. Dev.): activity relative to known control
From the text: The high control for the agonist counterscreen was Forskolin not acetylcholine.

[2] = molecular target: T1, GPR139 (Homo sapiens, UniProt Q6DWJ6); assay: GPR139 Agonist titration / agonist counterscreen assay (calcium detection, HEK-GPR139 cells); type: cell-based; design: expressed in transfected cells; host or cells: HEK Aequorin cells, Maxcyte transient transfection; conditions: GPR139 Agonist Activity; for Averaged Max % Response (±St. Dev.): activity relative to known control; for EC50: read-out: EC50
T1 sequence (Q6DWJ6 1-353): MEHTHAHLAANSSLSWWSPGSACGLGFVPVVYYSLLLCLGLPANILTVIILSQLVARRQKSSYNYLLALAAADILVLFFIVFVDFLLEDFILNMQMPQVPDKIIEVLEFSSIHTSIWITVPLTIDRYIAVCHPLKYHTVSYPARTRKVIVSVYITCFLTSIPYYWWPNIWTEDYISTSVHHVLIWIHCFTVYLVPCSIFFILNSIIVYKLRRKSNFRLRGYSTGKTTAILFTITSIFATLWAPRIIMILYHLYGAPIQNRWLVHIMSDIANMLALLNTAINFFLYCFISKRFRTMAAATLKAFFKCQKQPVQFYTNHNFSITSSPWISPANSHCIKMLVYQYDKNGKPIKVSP
Method: GPR activity was assessed using a calcium detection assay. […] Negative control samples were treated with DMSO. […] Intracellular calcium was measured using Calcium 5.

[3] = Homo sapiens, HEK293, HEK Agonist Activity section of Table 4 (parental HEK counterscreen)
[4] = values printed in E-notation without unit
[5] = HEK Agonist Activity, parental non-transfected HEK cells
[6] = HEK Agonist Activity section of Table 4 (parental HEK counterscreen)

| Structure (SMILES) | Lipophilic Efficiency (logD) ([1]; HEK Agonist Activity section) | Lipophilic Efficiency (logP) ([1]; HEK Agonist Activity section) | Averaged Max % Response (±St. Dev.) [2] [%] | Lipophilic Efficiency (logD) ([2]; based on logD) | Lipophilic Efficiency (logP) ([2]; based on logP) | Hill Slope ([2]; fitted dose-response curve) | Efficiency Ligand ([2]; ligand efficiency) | EC50 [2, 4] [nM] | Efficiency Ligand [2] | Hill Slope [2] | Lipophilic Efficiency (logD) [2] | Lipophilic Efficiency (logP) [2] | EC50 ([2]; HEK-GPR139 cells) [nM] | Averaged Max % Response (±St. Dev.) ([1]; HEK Agonist Activity section) [%] | EC50 [1, 3] [nM] | EC50 [1, 6] [nM] | further results |
| --- | --- | --- | --- | --- | --- | --- | --- | --- | --- | --- | --- | --- | --- | --- | --- | --- | --- |
| O=C(CCCOc1ccc(Cl)cc1Cl)NNC(=O)Cc1ccccc1 [SR-01000067982] | 1.37 | 1.37 | 88.62 ± 11.28 | 3.55 | 3.54 | 0.94 | 0.39 | 98.6 | – | – | – | – | – | 10.05 ± 3.22 | > 14800 | – | – |
| CCCCC(=O)OCC(=O)NCc1ccc(C)cc1 [SR-01000042109] | 2.18 | 2.18 | 92.84 ± 12.11 | – | – | – | – | – | 0.47 | 1.40 | 3.80 | 3.80 | 363 | 21.12 ± 3.06 | > 15000 | – | – |
| O=C(Cc1cccc2ccccc12)NCC(=O)NNC(=O)c1ccco1 [SR-01000069451] | 3.83 | 3.83 | 95.18 ± 9.10 | 6.21 | 6.20 | 1.06 | 0.39 | 60.5 | – | – | – | – | – | 25.95 ± 1.00 | > 14400 | – | – |
| Cn1c(CC(=O)NNC(=O)CSc2ccc3ccccc3c2)nc2ccccc21 [SR-01000068729] | – | – | 126.00 ± 7.94 | 6.03 | 6.03 | – | 0.44 | > 0.779 | – | – | – | – | – | – | – | – | Lipophilic Efficiency (logD) ([1]; HEK Agonist Activity): 1.73; Lipophilic Efficiency (logP) ([1]; HEK Agonist Activity): 1.73; Averaged Max % Response (±St. Dev.) ([1]; HEK Agonist Activity): −3.41 ± 1.08%; EC50 [1, 5]: > 15300 nM |
| COC(=O)c1ccc(CSc2nnc(N)s2)cc1 [SR-01000031964] | 2.26 | 2.26 | 89.11 ± 2.96 | – | – | – | – | – | 0.51 | 1.27 | 4.00 | 4.00 | 290 | 13.73 ± 5.82 | – | > 16000 | – |
| C=C(C)CN(CC)C(=O)CN1C(=O)NC(C)(c2ccc3ccccc3c2)C1=O (centres unmarked) [SR-01000048841] | – | – | 125.61 ± 14.18 | 5.59 | 5.59 | 0.27 | 0.41 | 6.7 | – | – | – | – | – | – | – | – | Lipophilic Efficiency (logD) ([1]; HEK Agonist Activity): 2.25; Lipophilic Efficiency (logP) ([1]; HEK Agonist Activity): 2.25; Averaged Max % Response (±St. Dev.) ([1]; HEK Agonist Activity): 15.49 ± 13.53%; EC50 ([1]; Homo sapiens, HEK293, HEK Agonist Activity, parental non-transfected HEK cells): > 14800 nM |
| Cc1ccc(CNC(=O)COC(=O)c2ccc(Br)o2)cc1 [SR-01000042100] | 2.20 | 2.20 | 100.32 ± 4.53 | 4.12 | 4.12 | 0.79 | 0.45 | – | – | – | – | – | – | 17.67 ± 3.11 | > 14400 | – | – |
| CN(C)CCOc1cc(-c2cn[nH]c2)ccc1NC(=O)C1COc2ccc(F)cc2C1.O=C(O)C(F)(F)F.O=C(O)C(F)(F)F (centres unmarked) [SR-00000004118] | – | – | 94.30 ± 8.24 | – | – | 1.08 | – | – | – | – | – | – | – | 13.55 ± 13.03 | – | > 14100 | – |
| Cc1ccc2c(c1)CCCN2CC(=O)N(C)c1c(N)n(Cc2ccccc2)c(=O)[nH]c1=O [SR-01000070509] | 2.32 | 2.31 | 96.94 ± 14.18 | 4.29 | 4.29 | 0.89 | 0.30 | 153 | – | – | – | – | – | 15.75 ± 7.96 | – | > 14300 | – |

More lines, main results first:

| Lipophilic Efficiency (logD) ([1]; HEK Agonist Activity section) | Lipophilic Efficiency (logP) ([1]; HEK Agonist Activity section) | Averaged Max % Response (±St. Dev.) [2] [%] | Lipophilic Efficiency (logD) ([2]; based on logD) | Lipophilic Efficiency (logP) ([2]; based on logP) | Hill Slope ([2]; fitted dose-response curve) | Efficiency Ligand ([2]; ligand efficiency) | EC50 [2, 4] [nM] | Efficiency Ligand [2] | Hill Slope [2] | Lipophilic Efficiency (logD) [2] | Lipophilic Efficiency (logP) [2] | EC50 ([2]; HEK-GPR139 cells) [nM] | Structure (SMILES) | Averaged Max % Response (±St. Dev.) ([1]; HEK Agonist Activity section) [%] | EC50 [1, 3] [nM] | EC50 [1, 6] [nM] | further results |
| --- | --- | --- | --- | --- | --- | --- | --- | --- | --- | --- | --- | --- | --- | --- | --- | --- | --- |
| – | – | 110.06 ± 19.04 | 6.35 | 6.03 | 0.64 | 0.40 | 19.2 | – | – | – | – | – | CC(C)CN1CCNC(=O)C1CC(=O)NCCCn1ccc2ccccc21 (centres unmarked) [SR-01000176150] | – | – | – | Lipophilic Efficiency (logD) ([1]; HEK Agonist Activity): 3.48; Lipophilic Efficiency (logP) ([1]; HEK Agonist Activity): 3.17; Averaged Max % Response (±St. Dev.) ([1]; HEK Agonist Activity): −3.65 ± 2.66%; EC50 [1, 5]: > 14100 nM |
| 1.96 | 1.94 | 102.46 ± 8.64 | 3.78 | 3.77 | 0.56 | 0.30 | 210 | – | – | – | – | – | N#C/C(=C/c1ccc(CNS(=O)(=O)c2ccccc2)o1)C(=O)NCCc1ccccc1 [SR-01000318079] | 11.69 ± 6.13 | – | > 14100 | – |
| 1.08 | 1.08 | 93.55 ± 12.47 | – | – | – | – | – | 0.42 | 0.85 | 2.55 | 2.55 | 472 | O=C(NCCn1ccc2ccccc21)c1cccc(Cl)c1 [SR-01000124131] | −0.13 ± 10.83 | > 14100 | – | – |
| 3.22 | 3.22 | 107.91 ± 12.91 | 4.98 | 4.98 | 0.75 | 0.40 | 242 | – | – | – | – | – | CC1=NNC(=O)C1CC(=O)N/N=C/c1cccc2ccccc12 (centres unmarked) [SR-01000080433] | 29.03 ± 7.47 | – | > 14100 | – |
| 2.88 | 2.88 | 85.23 ± 10.03 | 4.79 | 4.79 | 0.63 | 0.38 | 174 | – | – | – | – | – | CC(NC(=O)Cn1ncc2ccccc21)c1ccc2c(c1)OCCO2 (centres unmarked) [SR-01000152760] | 0.48 ± 8.40 | – | > 14100 | – |
| 1.53 | 1.53 | 93.30 ± 10.83 | – | – | – | – | – | 0.36 | 1.14 | 2.89 | 2.89 | 616 | CCSc1nc2sccn2c(=O)c1C(=O)NC(C)c1ccccc1 (centres unmarked) [SR-01000378352] | 8.83 ± 9.35 | > 14100 | – | – |
| 3.76 | 3.76 | 87.67 ± 13.61 | – | – | – | – | – | 0.31 | 1.75 | 4.74 | 4.74 | – | Cc1[nH]c(=O)[nH]c(=O)c1/C=N\NC(=O)CCc1ccc(OC(C)C)cc1 [SR-01000357697] | −2.06 ± 7.71 | > 14100 | – | – |
| 1.31 | 1.30 | 72.38 ± 5.96 | – | – | – | – | – | 0.36 | 0.97 | 2.40 | 2.39 | 1200 | Cc1cc(Br)ccc1OCC(=O)NNC(=O)c1ccccc1C [SR-01000318521] | 6.11 ± 9.12 | > 14100 | – | – |
| 1.27 | 1.27 | 134.89 ± 17.50 | 3.22 | 3.22 | 0.52 | 0.30 | 161 | – | – | – | – | – | C=CCC(O)(CC=C)C(C)NC(=O)CCC1(Cc2ccc3ccccc3c2)CCC(=O)N1 (centres unmarked) [SR-01000190122] | 0.66 ± 6.28 | – | > 14100 | – |
| 1.82 | 1.82 | 89.20 ± 13.55 | – | – | – | – | – | 0.37 | 1.64 | 3.32 | 3.32 | 449 | CN(C)c1ccc(NC(=O)Cn2cc(C=O)c3ccccc32)cc1 [SR-01000146281] | 8.26 ± 4.28 | – | > 14100 | – |
| – | – | 98.34 ± 6.18 | 4.61 | 4.61 | 0.92 | 0.57 | 16.2 | – | – | – | – | – | Cn1cnnc1SCc1ccc(F)c2ccccc12 [SR-01000524029] | – | – | – | Lipophilic Efficiency (logD) ([1]; HEK Agonist Activity): 1.61; Lipophilic Efficiency (logP) ([1]; HEK Agonist Activity): 1.61; Averaged Max % Response (±St. Dev.) ([1]; HEK Agonist Activity): 9.45 ± 2.06%; EC50 [1, 5]: > 16000 nM |

Source: patent publication US20250099420A1, “SMALL MOLECULE MODULATORS OF GPR139 COMPLEX” (University of Florida Research Foundation, Incorporated, priority 2022, published 2025)
